The record followed here is patent US10072011B2, “Substituted bridged urea analogs as sirtuin modulators” (GlaxoSmithKline Intellectual Property (No.2) Limited, priority 2014, dated 2018).

The target of the experiment is T1, SIRT1 (Homo sapiens, UniProt Q96EB6).
T1 sequence (Q96EB6 1-747): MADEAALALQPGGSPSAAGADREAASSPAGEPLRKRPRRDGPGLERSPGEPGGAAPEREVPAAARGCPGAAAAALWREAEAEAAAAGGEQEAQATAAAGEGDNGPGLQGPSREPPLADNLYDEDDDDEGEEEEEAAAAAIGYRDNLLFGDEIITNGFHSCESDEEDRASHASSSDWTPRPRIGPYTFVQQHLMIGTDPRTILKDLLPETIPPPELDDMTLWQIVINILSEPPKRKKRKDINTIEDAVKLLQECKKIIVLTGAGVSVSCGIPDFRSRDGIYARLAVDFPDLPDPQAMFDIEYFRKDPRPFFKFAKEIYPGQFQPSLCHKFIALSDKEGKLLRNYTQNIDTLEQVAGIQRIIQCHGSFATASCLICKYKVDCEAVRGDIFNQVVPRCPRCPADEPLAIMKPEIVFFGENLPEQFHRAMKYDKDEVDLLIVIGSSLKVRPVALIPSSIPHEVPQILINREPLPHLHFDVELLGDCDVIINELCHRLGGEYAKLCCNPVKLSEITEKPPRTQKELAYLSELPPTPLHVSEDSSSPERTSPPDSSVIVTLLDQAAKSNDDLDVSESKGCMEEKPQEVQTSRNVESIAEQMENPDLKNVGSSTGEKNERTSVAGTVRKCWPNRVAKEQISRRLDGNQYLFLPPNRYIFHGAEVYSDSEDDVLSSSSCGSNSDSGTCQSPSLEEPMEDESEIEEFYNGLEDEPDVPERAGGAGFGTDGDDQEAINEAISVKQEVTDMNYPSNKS
The experiment can be described thus: Trp mass spectrometry assay of SIRT1 activation (Ac-R-H-K-K(Ac)-W-NH2 peptide). The experiment is classed as biochemical. The note with it: for Emax: 25 min, read-out: TRP MAX RESP (percent maximum fold activation). Put shortly: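 N-terminal His-tagged human SIRT1, expressed in BL21(DE3) and purified, was incubated 25 min with an acetylated Trp peptide and NAD plus test compound at varying concentrations, then quenched with formic acid. OAADPR or deacetylated peptide was quantified by mass spectrometry versus compound-free control; EC1.5 is the concentration giving 50% activity increase, with percent maximum activation.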

Setting [1] is: Trp peptide 0.5 μM, 120 μM βNAD+, 10 nM SIRT1, 25 min at 25° C.
[2] abbreviates: Trp peptide 0.5 μM, 120 μM βNAD+, 10 nM SIRT1, 25 min at 25° C., relative to control (100%).

Where two headings read alike, the source gives them in different places. Some results are limits rather than exact numbers.

`O=C(NCC(F)(F)F)c1ccc2c(n1)N(C(=O)Nc1ncc3cc[nH]c3n1)[C@H]1CCN2C1` [Example 93, (4S)—N5-(7H-pyrrolo[2,3-d]pyrimidin-2-yl)-N7-(2,2,2-trifluoroethyl)-3,4-dihydro-1,4-methanopyrido[2,3-b][1,4]diazepine-5,7(2H)-dicarboxamide]: the Emax is above 150%. Also, under setting [1], the “TRP Activity (EC1.5, concentration of test compound that results in 150% activation of SIRT1)” value was “A (EC1.5<1 μM)”.
In the case of `NCC(F)(F)CNC(=O)c1ccc2c(n1)N(C(=O)Nc1ccccn1)[C@H]1CCN2C1` [Example 94, (4S)—N7-(3-amino-2,2-difluoropropyl)-N5-(pyridin-2-yl)-3,4-dihydro-1,4-methanopyrido[2,3-b][1,4]diazepine-5,7(2H)-dicarboxamide], the Emax under setting [2] is above 150%. Also, the “TRP Activity (EC1.5, concentration of test compound that results in 150% activation of SIRT1)” value under setting [1] was “B (EC1.5 1-25 μM)”.
In the case of `O=C(NCC(F)(F)F)c1ccc2c(n1)N(C(=O)Nc1cnc(OC[C@H](O)CO)cn1)[C@H]1CCN2C1` [Example 95, (4S)—N5-(5-((R)-2,3-dihydroxypropoxy)pyrazin-2-yl)-N7-(2,2,2-trifluoroethyl)-3,4-dihydro-1,4-methanopyrido[2,3-b][1,4]diazepine-5,7(2H)-dicarboxamide], under setting [2], the Emax is above 150%. The “TRP Activity (EC1.5, concentration of test compound that results in 150% activation of SIRT1)” value under setting [1] is “A (EC1.5<1 μM)”.
`O=C(NCC1CC1)c1ccc2c(n1)N(C(=O)Nc1cccnn1)[C@H]1CCN2C1` [Example 96, (4S)—N7-(cyclopropylmethyl)-N5-(pyridazin-3-yl)-3,4-dihydro-1,4-methanopyrido[2,3-b][1,4]diazepine-5,7(2H)-dicarboxamide]: the Emax under setting [2] is above 150%. Moreover, the “TRP Activity (EC1.5, concentration of test compound that results in 150% activation of SIRT1)” value under setting [1] is listed as “A (EC1.5<1 μM)”.
Regarding `O=C(NCC1CC1)c1ccc2c(n1)N(C(=O)Nc1ncccn1)[C@H]1CCN2C1` [Example 97, (4S)—N7-(cyclopropylmethyl)-N5-(pyrimidin-2-yl)-3,4-dihydro-1,4-methanopyrido[2,3-b][1,4]diazepine-5,7(2H)-dicarboxamide], under setting [2], the Emax was above 150%. In addition, under setting [1], the “TRP Activity (EC1.5, concentration of test compound that results in 150% activation of SIRT1)” value is reported as “A (EC1.5<1 μM)”.
With `C[C@@H](NC(=O)c1ccc2c(n1)N(C(=O)Nc1cccn(C)c1=O)[C@H]1CCN2C1)C(F)(F)F` [Example 98, (4S)—N5-(1-methyl-2-oxo-1,2-dihydropyridin-3-yl)-N7-((R)-1,1,1-trifluoropropan-2-yl)-3,4-dihydro-1,4-methanopyrido[2,3-b][1,4]diazepine-5,7(2H)-dicarboxamide], the Emax under setting [2] is above 150%. Moreover, the “TRP Activity (EC1.5, concentration of test compound that results in 150% activation of SIRT1)” value under setting [1] was “A (EC1.5<1 μM)”.
As to `C#CCNC(=O)c1ccc2c(n1)N(C(=O)Nc1ccccn1)[C@H]1CCN2C1` [Example 99, (4S)—N7-(prop-2-yn-1-yl)-N5-(pyridin-2-yl)-3,4-dihydro-1,4-methanopyrido[2,3-b][1,4]diazepine-5,7(2H)-dicarboxamide], the Emax under setting [2] is above 150%. Further, the “TRP Activity (EC1.5, concentration of test compound that results in 150% activation of SIRT1)” value under setting [1] is given as “A (EC1.5<1 μM)”.
With `CC(C)(C#N)NC(=O)c1ccc2c(n1)N(C(=O)Nc1ccccn1)[C@H]1CCN2C1` [Example 104, (4S)—N7-(2-cyanopropan-2-yl)-N5-(pyridin-2-yl)-3,4-dihydro-1,4-methanopyrido[2,3-b][1,4]diazepine-5,7(2H)-dicarboxamide], the Emax under setting [2] is above 150%. Besides, the “TRP Activity (EC1.5, concentration of test compound that results in 150% activation of SIRT1)” value under setting [1] was “B (EC1.5 1-25 μM)”.
In the same order, the values of `C#C[C@@H](C)NC(=O)c1ccc2c(n1)N(C(=O)Nc1ccccn1)[C@H]1CCN2C1` [Example 105, (4S)—N7-((R)-but-3-yn-2-yl)-N5-(pyridin-2-yl)-3,4-dihydro-1,4-methanopyrido[2,3-b][1,4]diazepine-5,7(2H)-dicarboxamide] are above 150% and “A (EC1.5<1 μM)”.
For `O=C(NCc1ccccc1)c1ccc2c(n1)N(C(=O)Nc1ccccn1)[C@H]1CCN2C1` [Example 106, (4S)—N7-benzyl-N5-(pyridin-2-yl)-3,4-dihydro-1,4-methanopyrido[2,3-b][1,4]diazepine-5,7(2H)-dicarboxamide], the Emax under setting [2] was above 150%. Besides, the “TRP Activity (EC1.5, concentration of test compound that results in 150% activation of SIRT1)” value under setting [1] is “A (EC1.5<1 μM)”.
On to `N#CCNC(=O)c1ccc2c(n1)N(C(=O)Nc1ccccn1)[C@H]1CCN2C1` [Example 107, (4S)—N7-(cyanomethyl)-N5-(pyridin-2-yl)-3,4-dihydro-1,4-methanopyrido[2,3-b][1,4]diazepine-5,7(2H)-dicarboxamide], for which the Emax is above 150%. Also, the “TRP Activity (EC1.5, concentration of test compound that results in 150% activation of SIRT1)” value under setting [1] is given as “A (EC1.5<1 μM)”.
In the case of `C[Si](C)(C)CNC(=O)c1ccc2c(n1)N(C(=O)Nc1ccccn1)[C@H]1CCN2C1` [Example 108, (4S)—N5-(pyridin-2-yl)-N7-((trimethylsilyl)methyl)-3,4-dihydro-1,4-methanopyrido[2,3-b][1,4]diazepine-5,7(2H)-dicarboxamide], under setting [2], the Emax was above 150%. In addition, under setting [1], the “TRP Activity (EC1.5, concentration of test compound that results in 150% activation of SIRT1)” value is given as “A (EC1.5<1 μM)”.
For `CC#CCNC(=O)c1ccc2c(n1)N(C(=O)Nc1ccccn1)[C@H]1CCN2C1` [Example 109, (4S)—N7-(but-2-yn-1-yl)-N5-(pyridin-2-yl)-3,4-dihydro-1,4-methanopyrido[2,3-b][1,4]diazepine-5,7(2H)-dicarboxamide], the Emax under setting [2] was above 150%. Also, the “TRP Activity (EC1.5, concentration of test compound that results in 150% activation of SIRT1)” value under setting [1] is “A (EC1.5<1 μM)”.
Turning to `Cc1ccnc(NC(=O)N2c3nc(C(=O)NCC4CC4)ccc3N3CC[C@H]2C3)c1` [Example 110, (4S)—N7-(cyclopropylmethyl)-N5-(4-methylpyridin-2-yl)-3,4-dihydro-1,4-methanopyrido[2,3-b][1,4]diazepine-5,7(2H)-dicarboxamide], under setting [2], the Emax was above 150%. For the same compound, the “TRP Activity (EC1.5, concentration of test compound that results in 150% activation of SIRT1)” value under setting [1] was “A (EC1.5<1 μM)”.
Take `Cc1ccc(NC(=O)N2c3nc(C(=O)NCC4CC4)ccc3N3CC[C@H]2C3)nc1` [Example 111, (4S)—N7-(cyclopropylmethyl)-N5-(5-methylpyridin-2-yl)-3,4-dihydro-1,4-methanopyrido[2,3-b][1,4]diazepine-5,7(2H)-dicarboxamide]: the Emax under setting [2] is above 150%. Under setting [1], the “TRP Activity (EC1.5, concentration of test compound that results in 150% activation of SIRT1)” value is reported as “A (EC1.5<1 μM)”.
`Cc1nc(NC(=O)N2c3nc(C(=O)NCC4CC4)ccc3N3CC[C@H]2C3)ccc1F` [Example 112, (4S)—N7-(cyclopropylmethyl)-N5-(5-fluoro-6-methylpyridin-2-yl)-3,4-dihydro-1,4-methanopyrido[2,3-b][1,4]diazepine-5,7(2H)-dicarboxamide]: the Emax under setting [2] was above 150%. In addition, under setting [1], the “TRP Activity (EC1.5, concentration of test compound that results in 150% activation of SIRT1)” value is recorded as “A (EC1.5<1 μM)”.
As for `COc1cc(NC(=O)N2c3nc(C(=O)NCC4CC4)ccc3N3CC[C@H]2C3)ncn1` [Example 113, (4S)—N7-(cyclopropylmethyl)-N5-(6-methoxypyrimidin-4-yl)-3,4-dihydro-1,4-methanopyrido[2,3-b][1,4]diazepine-5,7(2H)-dicarboxamide], the Emax under setting [2] was above 150%. Further, the “TRP Activity (EC1.5, concentration of test compound that results in 150% activation of SIRT1)” value under setting [1] is recorded as “B (EC1.5 1-25 μM)”.
In the same order, the values of `Cc1ncc(-c2ccnc(NC(=O)N3c4nc(C(=O)NCC5CC5)ccc4N4CC[C@H]3C4)c2)o1` [Example 114, (4S)—N7-(cyclopropylmethyl)-N5-(4-(2-methyloxazol-5-yl)pyridin-2-yl)-3,4-dihydro-1,4-methanopyrido[2,3-b][1,4]diazepine-5,7(2H)-dicarboxamide] are above 150% and “B (EC1.5 1-25 μM)”.
Regarding `Cc1ncc(-c2ccnc(NC(=O)N3c4nc(C(=O)NCC(F)(F)F)ccc4N4CC[C@H]3C4)c2)o1` [Example 115, (4S)—N5-(4-(2-methyloxazol-5-yl)pyridin-2-yl)-N7-(2,2,2-trifluoroethyl)-3,4-dihydro-1,4-methanopyrido[2,3-b][1,4]diazepine-5,7(2H)-dicarboxamide], the Emax under setting [2] is above 150%. Besides, the “TRP Activity (EC1.5, concentration of test compound that results in 150% activation of SIRT1)” value under setting [1] is “A (EC1.5<1 μM)”.
As for `O=C(NCC(F)F)c1ccc2c(n1)N(C(=O)Nc1ccccn1)[C@H]1CCN2C1` [Example 116, (4S)—N7-(2,2-difluoroethyl)-N5-(pyridin-2-yl)-3,4-dihydro-1,4-methanopyrido[2,3-b][1,4]diazepine-5,7(2H)-dicarboxamide], the Emax is above 150%. Further, under setting [1], the “TRP Activity (EC1.5, concentration of test compound that results in 150% activation of SIRT1)” value is recorded as “A (EC1.5<1 μM)”.
